Experiments:
Experiment in all cases: relative viability (nuclei count vs DMSO), 5 days (fraction); higher = more cells survive
Crizotinib + Palbociclib = compound: C[C@@H](Oc1cc(-c2cnn(C3CCNCC3)c2)cnc1N)c1c(Cl)ccc(F)c1Cl [Crizotinib] + CC(=O)c1c(C)c2cnc(Nc3ccc(N4CCNCC4)cn3)nc2n(C2CCCC2)c1=O [Palbociclib] (partner 0.5 µM)
Summary of the method: (§1)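 Values are medians from duplicate plates. Each reflects relative viability, defined as the nuclei count of treated wells over that of vehicle wells. Lung cancer cell lines in 1536-well plates were pin-tool dosed one day after seeding with one drug alone or with a fixed anchor-drug dose plus five library-drug doses (not always all listed) in √10 steps, then fixed, stained and imaged at 4× after 5 days.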

Olaparib + Alpelisib = compound: O=C(c1cc(Cc2n[nH]c(=O)c3ccccc23)ccc1F)N1CCN(C(=O)C2CC2)CC1 [Olaparib] + Cc1nc(NC(=O)N2CCC[C@H]2C(N)=O)sc1-c1ccnc(C(C)(C)C(F)(F)F)c1 [Alpelisib] (partner 2 µM)
Summary of the method: as §1

Carfilzomib + Alpelisib = compound: CC(C)C[C@H](NC(=O)[C@H](CCc1ccccc1)NC(=O)CN1CCOCC1)C(=O)N[C@@H](Cc1ccccc1)C(=O)N[C@@H](CC(C)C)C(=O)[C@@]1(C)CO1 [Carfilzomib] + Cc1nc(NC(=O)N2CCC[C@H]2C(N)=O)sc1-c1ccnc(C(C)(C)C(F)(F)F)c1 [Alpelisib] (partner 2 µM)
Summary of the method: as §1

Carfilzomib + Phenformin = compound: CC(C)C[C@H](NC(=O)[C@H](CCc1ccccc1)NC(=O)CN1CCOCC1)C(=O)N[C@@H](Cc1ccccc1)C(=O)N[C@@H](CC(C)C)C(=O)[C@@]1(C)CO1 [Carfilzomib] + N=C(N)NC(=N)NCCc1ccccc1 [Phenformin] (partner 250 µM)
Summary of the method: as §1

Row | Cell Line | relative viability (Crizotinib + Palbociclib; first compound 0.01 µM) | relative viability (Crizotinib + Palbociclib; first compound 0.03162 µM) | relative viability (Crizotinib + Palbociclib; first compound 0.1 µM) | relative viability (Crizotinib + Palbociclib; first compound 0.3162 µM) | relative viability (Crizotinib + Palbociclib; first compound 1 µM) | relative viability (Olaparib + Alpelisib; first compound 0.253 µM) | relative viability (Olaparib + Alpelisib; first compound 2.53 µM) | relative viability (Olaparib + Alpelisib; first compound 8 µM) | relative viability (Carfilzomib + Alpelisib; first compound 0.001 µM) | relative viability (Carfilzomib + Alpelisib; first compound 0.003162 µM) | relative viability (Carfilzomib + Alpelisib; first compound 0.01 µM) | relative viability (Carfilzomib + Alpelisib; first compound 0.03162 µM) | relative viability (Carfilzomib + Alpelisib; first compound 0.1 µM) | relative viability (Carfilzomib + Phenformin; first compound 0.001 µM) | relative viability (Carfilzomib + Phenformin; first compound 0.003162 µM) | relative viability (Carfilzomib + Phenformin; first compound 0.01 µM) | relative viability (Carfilzomib + Phenformin; first compound 0.03162 µM) | relative viability (Carfilzomib + Phenformin; first compound 0.1 µM) | relative viability (Olaparib + Alpelisib; first compound 0.08 µM)
1 | NCI-H441 | 0.207 | 0.267 | 0.212 | 0.188 | 0.2 | 0.541 | 0.568 | 0.487 | 0.946 | 0.842 | 0.2 | 0.102 | 0.15 | 0.785 | 0.898 | 0.242 | 0.161 | 0.177 | 
2 | ABC-1 | 0.811 | 0.838 | 0.517 |  | 0.711 | 1 | 0.96 | 0.981 | 1.16 | 1.09 | 0.636 | 0.246 | 0.267 | 0.235 | 0.25 | 0.236 | 0.229 | 0.185 | 0.958
3 | NCI-H2170 | 0.38 | 0.435 | 0.362 | 0.384 | 0.381 | 0.838 | 0.849 | 0.718 | 0.801 | 0.775 | 0.875 | 0.659 | 0.24 | 0.423 | 0.457 | 0.427 | 0.411 | 0.232 | 0.846
4 | NCI-H1944 | 0.284 | 0.315 | 0.307 | 0.345 | 0.344 | 0.743 | 0.699 | 0.717 | 0.776 | 0.877 | 0.776 | 0.938 | 0.304 | 0.187 | 0.2 | 0.202 | 0.204 | 0.139 | 0.881
5 | PC-3 [JPC-3] | 0.53 | 0.566 | 0.545 |  | 0.553 | 1.01 | 1.01 | 0.989 | 1.07 | 1.08 | 1.02 | 0.824 | 0.257 | 0.487 | 0.461 | 0.464 | 0.432 | 0.261 | 1.01
6 | NCI-H1648 |  | 0.262 | 0.264 | 0.275 | 0.318 |  |  |  |  |  |  |  |  |  |  |  |  |  | 
7 | NCI-H1975 | 0.594 | 0.792 | 0.554 | 0.475 | 0.493 | 0.594 | 0.692 | 0.612 | 0.584 | 0.646 | 0.281 | 0.117 | 0.126 |  | 0.367 | 0.197 | 0.0933 | 0.0936 | 0.764
8 | NCI-H650 | 0.346 | 0.32 | 0.352 |  | 0.375 | 1.17 | 1.04 | 0.84 | 1.09 | 1.3 | 1.21 | 1.09 | 0.164 |  | 0.536 | 0.451 | 0.345 | 0.148 | 1.33
9 | NCI-H1623 |  |  |  |  |  |  |  |  |  |  |  |  |  | 0.5 | 0.612 | 0.725 | 0.19 | 0.414 | 
10 | NCI-H1755 | 0.465 | 0.445 | 0.445 | 0.457 | 0.451 | 0.867 | 0.898 | 0.841 | 0.917 | 0.948 | 0.925 | 0.601 | 0.202 | 0.623 | 0.664 | 0.66 | 0.592 | 0.238 | 1.05
11 | NCI-H1666 | 0.678 | 0.685 | 0.712 | 0.625 | 0.623 | 0.945 | 0.844 | 0.676 | 1.06 | 1.05 | 1.03 | 0.3 | 0.231 | 0.594 | 0.569 | 0.528 | 0.428 | 0.278 | 1.01
12 | NCI-H1792 | 0.588 | 0.692 | 0.639 |  | 0.68 | 0.596 | 0.56 | 0.506 | 0.648 | 0.742 | 0.674 | 0.756 | 0.386 | 0.188 | 0.357 | 0.262 | 0.234 | 0.0821 | 0.675
13 | CAL-12T | 0.369 | 0.577 | 0.341 | 0.295 | 0.369 | 1.03 | 1.25 | 1.12 |  | 1.38 | 1.3 | 0.619 | 0.105 | 0.61 | 0.668 | 0.591 | 0.101 | 0.114 | 1.79
14 | EPLC-272H | 0.334 | 0.298 | 0.31 |  | 0.309 | 0.871 | 1.09 | 0.789 | 0.884 | 1.03 | 0.83 | 0.141 | 0.106 | 0.269 | 0.314 | 0.307 | 0.124 | 0.038 | 1.03
15 | IA-LM |  |  |  |  |  | 0.738 | 0.76 | 0.509 | 0.747 | 0.821 | 0.633 | 0.151 | 0.0147 |  |  |  |  |  | 0.929
16 | PC-14 | 0.52 | 0.53 | 0.419 | 0.566 | 0.535 | 0.859 | 0.931 | 0.792 | 0.958 | 0.981 | 0.976 | 0.0805 | 0.0691 | 0.549 | 0.774 | 0.557 | 0.115 | 0.0595 | 0.988
17 | NCI-H1703 |  |  |  |  |  | 0.464 | 0.391 | 0.412 | 0.246 | 0.334 | 0.126 | 0.112 | 0.122 |  |  |  |  |  | 0.45
18 | NCI-H1437 | 0.283 | 0.328 | 0.302 | 0.309 | 0.356 | 0.987 | 0.929 | 0.764 | 0.982 | 1.01 | 0.943 | 0.54 | 0.101 | 0.306 | 0.346 | 0.301 | 0.249 | 0.123 | 0.987
19 | NCI-H358 | 0.127 | 0.14 | 0.184 | 0.127 | 0.126 | 0.808 | 0.868 | 0.773 | 1.21 | 1.19 | 0.85 | 0.153 | 0.13 | 0.338 | 0.4 | 0.203 | 0.0604 | 0.0694 | 0.862
